Where “and” joins values, the source holds several entries; their conditions need not be identical. Equal entries are not always repeated. Inconclusive results and toxic doses are left out.
System: P388 leukemia ip, CD2F1 mice, survival T/C
Test: NCI In Vivo Anticancer Drug Screen. Data for tumor model P388 Leukemia (intraperitoneal) in CD2F1 (CDF1) mice
Conditions: endpoint: median survival time, higher = longer survival
Procedure, shortened: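 Mice carrying the transplanted tumor received test compound or vehicle. Survival was recorded in each group, and the value is the treated-group measurement divided by that of the vehicle-treated control group.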

[1] = dose: 50.0 mg/kg/injection, schedule: Q01DX009 (ip), vehicle: Klucel (hydroxypropylcellulose) (HPC)
[2] = dose: 100.0 mg/kg/injection, schedule: Q01DX009 (ip), vehicle: Klucel (hydroxypropylcellulose) (HPC)
[3] = dose: 200.0 mg/kg/injection, schedule: Q01DX009 (ip), vehicle: Klucel (hydroxypropylcellulose) (HPC)
[4] = dose: 50.0 mg/kg/injection, schedule: Q01DX005 (ip), vehicle: Klucel (hydroxypropylcellulose) (HPC)
[5] = dose: 100.0 mg/kg/injection, schedule: Q01DX005 (ip), vehicle: Klucel (hydroxypropylcellulose) (HPC)
[6] = dose: 200.0 mg/kg/injection, schedule: Q01DX005 (ip), vehicle: Klucel (hydroxypropylcellulose) (HPC)
[7] = dose: 60.0 mg/kg/injection, schedule: Q01DX005 (ip), vehicle: saline with Tween-80
[8] = dose: 120.0 mg/kg/injection, schedule: Q01DX005 (ip), vehicle: saline with Tween-80
[9] = dose: 240.0 mg/kg/injection, schedule: Q01DX005 (ip), vehicle: saline with Tween-80
[10] = dose: 25.0 mg/kg/injection, schedule: Q01DX009 (ip), vehicle: saline with Tween-80
[11] = dose: 50.0 mg/kg/injection, schedule: Q01DX009 (ip), vehicle: saline with Tween-80
[12] = dose: 100.0 mg/kg/injection, schedule: Q01DX009 (ip), vehicle: saline with Tween-80
[13] = dose: 200.0 mg/kg/injection, schedule: Q01DX009 (ip), vehicle: saline with Tween-80
[14] = dose: 12.5 mg/kg/injection, schedule: Q01DX009 (ip), vehicle: other
[15] = dose: 25.0 mg/kg/injection, schedule: Q01DX009 (ip), vehicle: other
[16] = dose: 50.0 mg/kg/injection, schedule: Q01DX009 (ip), vehicle: other
[17] = dose: 100.0 mg/kg/injection, schedule: Q04DX003 (ip), vehicle: saline
[18] = dose: 200.0 mg/kg/injection, schedule: Q04DX003 (ip), vehicle: saline

In the case of `O=C([O][Sn]([O]C(=O)c1ccccc1)([c]1ccccc1)[c]1ccccc1)c1ccccc1`, the T/C (dose: 3.12 mg/kg/injection, schedule: Q01DX005 (ip), vehicle: Klucel (hydroxypropylcellulose) (HPC)) is reported as 111 % of control, the T/C (dose: 6.25 mg/kg/injection, schedule: Q01DX005 (ip), vehicle: Klucel (hydroxypropylcellulose) (HPC)) is reported as 116 % of control and 123 % of control and the T/C (dose: 12.5 mg/kg/injection, schedule: Q01DX005 (ip), vehicle: Klucel (hydroxypropylcellulose) (HPC)) is reported as 111 % of control and 123 % of control. The T/C (dose: 25.0 mg/kg/injection, schedule: Q01DX005 (ip), vehicle: Klucel (hydroxypropylcellulose) (HPC)) was 151 % of control.
For `CCN(c1ccccc1)S(=O)(=O)c1cc(N)ccc1C`, the T/C (dose: 25.0 mg/kg/injection, schedule: Q01DX009 (ip), vehicle: Klucel (hydroxypropylcellulose) (HPC)) was 101 % of control, the T/C [1] was 100 % of control and the T/C [2] was 110 % of control. The T/C [3] was 97 % of control and the T/C (dose: 400.0 mg/kg/injection, schedule: Q01DX009 (ip), vehicle: Klucel (hydroxypropylcellulose) (HPC)) was 93 % of control.
For `CC(=O)CC(c1ccccc1)c1c(O)c2ccccc2oc1=O` (centres undefined), the T/C (dose: 0.02 mg/kg/injection, schedule: Q01DX009 (ip), vehicle: Klucel (hydroxypropylcellulose) (HPC)) was 93 % of control and 96 % of control, the T/C (dose: 0.05 mg/kg/injection, schedule: Q01DX009 (ip), vehicle: Klucel (hydroxypropylcellulose) (HPC)) was 100 % of control and the T/C (dose: 0.05 mg/kg/injection, schedule: Q01DX009 (ip), vehicle: saline) was 99 % of control. For the same compound, the T/C (dose: 0.06 mg/kg/injection, schedule: Q01DX009 (ip), vehicle: other) was 99 % of control, the T/C (dose: 0.1 mg/kg/injection, schedule: Q01DX009 (ip), vehicle: Klucel (hydroxypropylcellulose) (HPC)) was 96 % of control and 97 % of control and the T/C (dose: 0.1 mg/kg/injection, schedule: Q01DX009 (ip), vehicle: saline) was 96 % of control. For the same compound, the T/C (dose: 0.13 mg/kg/injection, schedule: Q01DX009 (ip), vehicle: other) was 92 % of control, the T/C (dose: 0.2 mg/kg/injection, schedule: Q01DX009 (ip), vehicle: Klucel (hydroxypropylcellulose) (HPC)) was 95 % of control and 96 % of control and the T/C (dose: 0.2 mg/kg/injection, schedule: Q01DX009 (ip), vehicle: saline) was 109 % of control and 92 % of control. For the same compound, the T/C (dose: 0.25 mg/kg/injection, schedule: Q01DX009 (ip), vehicle: other) was 95 % of control, the T/C (dose: 0.4 mg/kg/injection, schedule: Q01DX009 (ip), vehicle: Klucel (hydroxypropylcellulose) (HPC)) was 91 % of control and 95 % of control and the T/C (dose: 0.4 mg/kg/injection, schedule: Q01DX009 (ip), vehicle: saline) was 98 % of control and 90 % of control. For the same compound, the T/C (dose: 0.5 mg/kg/injection, schedule: Q01DX009 (ip), vehicle: saline with Tween-80) was 97 % of control, the T/C (dose: 0.8 mg/kg/injection, schedule: Q01DX009 (ip), vehicle: saline) was 101 % of control and 91 % of control and the T/C (dose: 1.0 mg/kg/injection, schedule: Q01DX001 (ip), vehicle: saline + alcohol) was 101 % of control. The T/C (dose: 1.0 mg/kg/injection, schedule: Q01DX009 (ip), vehicle: saline with Tween-80) was 93 % of control, the T/C (dose: 2.0 mg/kg/injection, schedule: Q01DX001 (ip), vehicle: saline + alcohol) was 101 % of control and the T/C (dose: 4.0 mg/kg/injection, schedule: Q01DX001 (ip), vehicle: saline + alcohol) was 95 % of control. The T/C (dose: 4.0 mg/kg/injection, schedule: Q04HX002 (ip), vehicle: saline with Tween-80) was 96 % of control, the T/C (dose: 8.0 mg/kg/injection, schedule: Q04HX002 (ip), vehicle: saline with Tween-80) was 99 % of control and 86 % of control and the T/C (dose: 16.0 mg/kg/injection, schedule: Q04HX002 (ip), vehicle: saline with Tween-80) was 106 % of control and 96 % of control.
With `Nc1ncnc2c1ncn2C[c-]1[c-][c-][c-][c-]1.[Fe].[c-]1[c-][c-][cH-][c-]1` the T/C [4] was 94 % of control, the T/C [5] was 94 % of control and the T/C [6] was 100 % of control.
`COc1cc(/C=N\N=c2\sc3ccccc3n2C)ccc1OCCO` was tested, and the T/C [7] was 92 % of control, the T/C [8] was 91 % of control and the T/C [9] was 91 % of control.
In the case of `Clc1cccc(Cl)c1C1CSc2ccccc2N=C1c1ccccc1` (centres undefined), the T/C [1] is reported as 94 % of control, the T/C [2] is reported as 100 % of control and the T/C [3] is reported as 100 % of control.
For `O=C1/C(=C\c2ccc([N+](=O)[O-])cc2)CS(=O)(=O)C/C1=C/c1ccc([N+](=O)[O-])cc1`, the T/C [10] was 95 % of control, the T/C [11] was 94 % of control and the T/C [12] was 105 % of control. The T/C [13] was 116 % of control.
`COC(=O)C1C(=O)C(NC(=O)CCCCl)C(c2ccccc2)C(C(=O)OC)C1=O` (centres undefined) was tested, and the T/C (dose: 12.5 mg/kg/injection, schedule: Q01DX005 (ip), vehicle: saline with Tween-80) was 103 % of control, the T/C (dose: 25.0 mg/kg/injection, schedule: Q01DX005 (ip), vehicle: saline with Tween-80) was 106 % of control and the T/C (dose: 50.0 mg/kg/injection, schedule: Q01DX005 (ip), vehicle: saline with Tween-80) was 99 % of control. The T/C [7] was 101 % of control, the T/C (dose: 100.0 mg/kg/injection, schedule: Q01DX005 (ip), vehicle: saline with Tween-80) was 102 % of control and the T/C [8] was 94 % of control. The T/C (dose: 200.0 mg/kg/injection, schedule: Q01DX005 (ip), vehicle: saline with Tween-80) was 103 % of control and the T/C [9] was 97 % of control.
`O=C(N/C(=C\c1ccccc1Cl)c1nc2ccccc2s1)c1ccccc1` was tested, and the T/C [7] was 113 % of control, the T/C [8] was 113 % of control and the T/C [9] was 102 % of control.
With `CC(=O)OC1CC2CC(O)(C(=O)CO)CC2C2CCC3=CC(=O)CC3C(C)(O)C12` (centres undefined) the T/C [7] was 100 % of control, the T/C [8] was 93 % of control and the T/C [9] was 93 % of control.
For `CCC(c1ccc(OC)cc1)C(NCC(=O)N/N=C/c1ccccc1[N+](=O)[O-])c1ccc(OC)cc1` (centres undefined), the T/C (dose: 3.12 mg/kg/injection, schedule: Q01DX001 (ip), vehicle: saline with Tween-80) was 94 % of control, the T/C (dose: 6.25 mg/kg/injection, schedule: Q01DX001 (ip), vehicle: saline with Tween-80) was 88 % of control and the T/C (dose: 12.5 mg/kg/injection, schedule: Q01DX001 (ip), vehicle: saline with Tween-80) was 88 % of control. The T/C (dose: 400.0 mg/kg/injection, schedule: Q01DX001 (ip), vehicle: saline with Tween-80) was 96 % of control.
`C=C(C)C1CC(=O)C2(C)OC2C1` (centres undefined) was tested, and the T/C (dose: 100.0 mg/kg/injection, schedule: Q04DX002 (ip), vehicle: saline) was 101 % of control, the T/C (dose: 200.0 mg/kg/injection, schedule: Q04DX002 (ip), vehicle: saline) was 100 % of control and the T/C (dose: 400.0 mg/kg/injection, schedule: Q04DX002 (ip), vehicle: saline) was 97 % of control.
In the case of `CC1(C)C2CCC(CN)C1C2` (centres undefined), the T/C [14] is reported as 96 % of control, the T/C [15] is reported as 97 % of control and the T/C [16] is reported as 100 % of control.
In the case of `CCCCC#CC(=O)OCC`, the T/C [7] is reported as 101 % of control, the T/C [8] is reported as 106 % of control and the T/C [9] is reported as 113 % of control.
In the case of `CC(=O)OCc1ccc(Cl)cc1`, the T/C [11] is reported as 99 % of control, the T/C (dose: 50.0 mg/kg/injection, schedule: Q04DX003 (ip), vehicle: saline) is reported as 100 % of control and the T/C [12] is reported as 99 % of control. For the same compound, the T/C [17] was 104 % of control, the T/C [13] was 114 % of control and the T/C [18] was 113 % of control. For the same compound, the T/C (dose: 400.0 mg/kg/injection, schedule: Q01DX009 (ip), vehicle: saline with Tween-80) was 123 % of control.
`O=C(CCl)Nc1c(Br)cc(F)cc1Br` was tested, and the T/C [11] was 88 % of control, the T/C [12] was 99 % of control and the T/C [13] was 104 % of control.
With `CCOC(=O)C[CH2][Sn]([Cl])([Cl])[Cl]` the T/C [17] was 100 % of control and the T/C [18] was 103 % of control.
`c1ccc2oc(NCCSSCCNc3nc4ccccc4o3)nc2c1` was tested, and the T/C [14] was 100 % of control, the T/C [15] was 92 % of control and the T/C [16] was 86 % of control and 93 % of control.
With `CNCCCCCc1cc(-c2ccc([N+](=O)[O-])cc2)n[nH]1` the T/C (dose: 25.0 mg/kg/injection, schedule: Q04DX003 (ip), vehicle: saline with Tween-80) was 103 % of control, the T/C (dose: 50.0 mg/kg/injection, schedule: Q04DX003 (ip), vehicle: saline with Tween-80) was 103 % of control and the T/C (dose: 100.0 mg/kg/injection, schedule: Q04DX003 (ip), vehicle: saline with Tween-80) was 100 % of control and 94 % of control.
For `CC(C)(C)CC(C)(C)c1ccc(OCc2ccc(Cl)cc2)cc1`, the T/C [11] was 100 % of control, the T/C [12] was 100 % of control and the T/C [13] was 98 % of control.
In the case of `CC(NC(=O)OCc1ccccc1)C(=O)NC(Cc1c[nH]c2ccccc12)C(=O)O` (centres undefined), the T/C [4] is reported as 99 % of control, the T/C [5] is reported as 97 % of control and the T/C [6] is reported as 95 % of control.
In the case of `CC(c1ccccc1)C1NC(=O)NC1=O` (centres undefined), the T/C [10] is reported as 117 % of control, the T/C [11] is reported as 106 % of control and the T/C [12] is reported as 106 % of control.
`Cc1nn(C(=O)c2ccncc2)c(C)c1N=Nc1ccc(S(N)(=O)=O)cc1` was tested, and the T/C [1] was 105 % of control and the T/C [2] was 101 % of control.
